Experimental data taken from ChEMBL document CHEMBL1138435, “A novel antibacterial iridoid and triterpene from Caiophora coronata” (2003).
Values after ≈ are worked out from the molar mass of the structure shown. Active and inactive are the calls of the source. No cut-off for these calls is given here.

Columns and labels:
Staphylococcus aureus [1] = assay: Antimicrobial activity against methicillin-sensitive Staphylococcus aureus 375 after 18 hrs by twofold serial microbroth dilution method; type: functional; conditions: Staphylococcus aureus, 375, 18 h
Staphylococcus aureus [2] = assay: Antimicrobial activity against methicillin-resistant Staphylococcus aureus 310 after 18 hrs by twofold serial microbroth dilution method; type: functional; conditions: Staphylococcus aureus, 310, 18 h
Bacillus subtilis = assay: Antimicrobial activity against Bacillus subtilis 327 after 18 hrs by twofold serial microbroth dilution method; type: functional; conditions: Bacillus subtilis, 327, 18 h
Enterococcus faecium = assay: Antimicrobial activity against vancomycin-resistant Enterococcus faecium 379 after 18 hrs by twofold serial microbroth dilution method; type: functional; conditions: Enterococcus faecium, 379, 18 h
Escherichia coli [3] = assay: Antimicrobial activity against Escherichia coli 389 after 18 hrs by twofold serial microbroth dilution method; type: functional; conditions: Escherichia coli, 389, 18 h
Candida albicans = assay: Antimicrobial activity against Candida albicans 54 after 18 hrs by agar diffusion method; type: functional
Escherichia coli [4] = assay: Antimicrobial activity against Escherichia coli 442 after 18 hrs by agar diffusion method; type: functional, organism-based
Escherichia coli [5] = assay: Antimicrobial activity against Escherichia coli 442 after 18 hrs by twofold serial microbroth dilution method; type: functional; conditions: Escherichia coli, 442, 18 h

Row | SMILES | MIC (Staphylococcus aureus [1]) [µg/mL] | MIC (Staphylococcus aureus [2]) [µg/mL] | MIC (Bacillus subtilis) [µg/mL] | MIC (Enterococcus faecium) [µg/mL] | MIC (Escherichia coli [3]) [µg/mL] | MIC (Candida albicans; Candida albicans, 54, 18 h) [µg/mL] | inhibition zone (IZ) (Candida albicans) | inhibition zone (IZ) (Escherichia coli [4]) | MIC (Escherichia coli [5]) [µg/mL]
1 | CC1(C)S[C@@H]2[C@H](NC(=O)Cc3ccccc3)C(=O)N2[C@H]1C(=O)O [PENICILLIN G] | 0.06 (≈ 0.179 µM) | 128 (≈ 383 µM) | 32 (≈ 95.7 µM) | 32 (≈ 95.7 µM) | 4 (≈ 12 µM) | > 128 |  |  | 
2 | C[C@H]1[C@H](C)CC[C@]2(C)CC[C@]3(C(=O)O)C(=CC[C@@H]4[C@@]5(C)[C@H](O)C[C@H](O)C(C)(C)[C@@H]5CC[C@]43C)[C@H]12 | 4 (≈ 8.46 µM) | 4 (≈ 8.46 µM) | 2 (≈ 4.23 µM) | 4 (≈ 8.46 µM) | 16 (≈ 33.8 µM) |  | inactive | inactive | 
3 | CO[C@H]1OC(=O)[C@H](C)[C@@H]2[C@@H]1[C@@H](CO)C[C@@H]2O [CAIOPHORAENIN] | > 128 | > 128 | > 128 | > 128 | > 128 |  | inactive | inactive | > 128
4 | C[C@@H]1[C@@H]2COC(=O)C[C@H]2C[C@@H]1O [ISOBOONEIN] | > 128 | > 128 | > 128 | > 128 | > 128 |  | inactive | inactive | > 128
